Results on three compounds are retold here after US4442124A, “Valproic acid ester with antiepileptic and anticonvulsant activity and pharmaceutical compositions therefrom” (priority 1979, dated 1984).

Data set [1] is described as follows: Solubility. It counts as physicochemical.
The nature of data set [2]: Acute toxicity in Wister rats (Lichtfield and Wilcoxon). Particulars: in vivo, rat, mortality within 8 days, read-out: DL50 and range. As for the experimental part: (§1) The acute toxicity of PEV has been investigated on Swiss albino mice of about 20 grams average weight and in Wister rats of 150±10 grams average weight by administration both through the oral route and by the endoperitoneal route.
(§2) All the animals fasted beginning 12 hours before the experiment. For the experiment, there are used 10 animals that is 5 males and 5 females for each dosage level of treatment. The values of […] are expressed in mg/kg and are calculated on the basis of the mortality which has been determined within 8 days after the administration in accordance with the method of Lichtfield and Wilcoxon.

Data set [3] in a line: Pharmacokinetics: plasma levels of valproic acid in Sprague-Dawley rats. It counts as in vivo. Particulars: rat. The method, then: The test tubes are then removed from the ice and are stirred for a period of ten minutes. Centrifugation is carried out for the purpose of separating the phases and the organic phase in n-hexane is directly injected into the gas-chromatographic apparatus.
The study of plasma levels is carried out on Sprague-Dawley albino rats of an average body weight of 215 grams (200-230). Prior to the experiment, the rats fasted for a period of twelve hours. The acid is administered both orally and intravenously, but the ester alone is administered orally. The administrations are carried out with equimolar doses, that is in the dose of 1.39 millimole/kg which corresponds to a dose of 230 mg/kg in the case of the acid administered as the sodium salt and a dose of 360 mg/kg in the case of PEV. Both the acid as well as the ester are dissolved in ethyleneglycol:ethyl alcohol in the proportion of 65-35 (V/V). The concentration of the solution is calculated in a manner to administer 2 cc/kg. After the intervals of time shown in Table 2 in minutes or in hours, the rats in groups of six, are killed by decapitation, the blood is collected and centrifuged for the purpose of obtaining the plasma which is extracted and analyzed as previously described.
On the basis of the results, it is concluded that PEV is absorbed more rapidly, but even more significant, more uniformly compared with valproic acid. An index of the dispersion of the data has been calculated by determining the standard variation in percent with respect to the average value for each group under examination.

Data set [4] in a line: Acute toxicity in Swiss albino mice (Lichtfield and Wilcoxon). The note with it: in vivo, mouse, mortality within 8 days, read-out: DL50 and range. The method, then: as §1, §2
Data set [5] has as its system Wister rats. The note with it: rat, oral, literature value; cited from earlier work.

As for `CCCC(CCC)C(=O)OCOC(=O)C(C)(C)C` [PEV, pivaloyloxymethyl 2-propyl-pentanoate], in data set [1] (alcohols, ethers, ketones), the “Solubility in alcohols, ethers, ketones” value is on record as “soluble in alcohols, ethers, ketones”. In addition, the Solubility in water entry in data set [1] (water) is “insoluble in water”. In addition, the LD50 at 192 h was 608 mg/kg in data set [2] (ip, endoperitoneal); 1440 mg/kg in data set [2] (oral); 510 mg/kg in data set [4] (ip, endoperitoneal); 1210 mg/kg in data set [4] (oral). The Absolute biodisponibility in data set [3] (in vivo) is recorded as 72.4%. The “Average index of dispersion of plasma levels (standard variation in percent of average)” value in data set [3] (in vivo, po) is 15.2. Besides, in data set [3] (in vivo, po), the “Difference in biodisponibility in favor of the ester” value was 45.5%. In addition, in data set [3] (orally, 1.39 mmoles/kg), the “Presence of PEV (intact ester) in the plasma” value is reported as “none of the rats treated with the ester have exhibited the presence of PEV in the plasma”.

As to `CCCC(CCC)C(=O)[O-].[Na+]` [sodium valproate, reference compound], in data set [3] (in vivo, 1390 umol/kg, oral, from AUC versus i.v., read-out: Absolute biodisponibility), the bioavailability turned out to be 49.9%.

For `CCCC(CCC)C(=O)O` [valproic acid, 2-propyl-pentanoic acid], the “DL50 (Merck Index, 9th Edition)” value in data set [5] was 670 mg/kg. Also, the “Average index of dispersion of plasma levels (standard variation in percent of average)” value stood at 18.3 in data set [3] (in vivo, iv) and 60.5 in data set [3] (in vivo, po).
